Data reported in article PMC10547880, “Synthesis and biological evaluation of novel 1,2,3-triazole hybrids of cabotegravir: identification of potent antitumor activity against lung cancer” (Frontiers in Pharmacology, 2023).

Test system: H1299 cells
Test: Live/dead cell staining (Calcein-AM/PI), H1299
Assay type: cell-based, Human
Conditions: H1299, 5, 10, 20 μM, 24 h
Method: Cells with a density of 5 × 10^3 cells per well were seeded in a 96-well plate. After overnight incubation, cells were treated with different concentrations (0, 5 μM, 10 μM, 20 μM) of compounds for 24 h. The LIVE/DEAD Assay Kit was used to dye cells, and cells were observed and photographed under a fluorescent microscope. Live and Dead cell numbers were counted and the ratio of dead to living cells were calculated. Values were expressed as Mean ± SEM, p < 0.05 was considered statistically significant. Data were performed using Graph Prim 7.0.
To assess the anti-proliferative effects of compound 5i, live/dead cell staining was performed using Calcein Acetoxymethyl Ester (Calcein-AM) and Propidium Iodide (PI) dyes ([Xie et al., 2023]). Calcein-AM highlights live cells through green fluorescence emission, while PI identifies dead cells with damaged membrane integrity, producing red fluorescence. H460 and H1299 cells were treated with different concentrations (0, 5, 10 and 20 μM) of compound 5i for 24 h. After 24 h treatment, cells were stained with Calcein-AM and PI, diluted in cultured medium, and incubated for an hour in dark. Then the fluorescence was detected and photographed using a fluorescent microscope. […] In addition, we also performed plate clone formation assay ([Xu et al., 2018]) to further investigate the anti-proliferation ability of compound 5i. […]

With `COc1c2n(cc(C(=O)Nc3cccc(-c4cn(-c5ccccc5OC(F)(F)F)nn4)c3)c1=O)CC1OCC(C)N1C2=O` (stereo not shown) [Compound 5i] the “live and dead cell numbers” value was “decrease in live cell numbers alongside a substantial rise in dead cells”.
